Data on one compound can be found in ChEMBL document CHEMBL2311387, “Dose-dependent interaction of trans-resveratrol with biomembranes: effects on antioxidant property” (J Med Chem, 2013).

The structures appear in SMILES notation. Active and inactive are the calls of the source. The rule behind the calls is not given here.

A short description of series [1]: Antioxidant activity in planer lipid bilayer membrane assessed as reduction in 100 uM DPPH-induced charge transfer resistance at 50 uM by admittance spectroscopic analysis. The class given is functional, cell membranes. Set-up: scale not given: the % may be the effect or the level left.
A short description of series [2]: Binding affinity to planer lipid bilayer assessed as reduction in diameter of semicircle pattern at up to 60 uM by admittance spectroscopic analysis. The format is physicochemical.
Series [3] is described as follows: Binding affinity to planer lipid bilayer assessed as increase in anodic current by cyclic voltammetric analysis. The class given is physicochemical.
Series [4] can be described thus: Binding affinity to curcumin encapsulated liposomes assessed as curcumin release from unilamellar vesicles after 20 mins by NMR spectroscopic analysis.
Series [5] can be described thus: Antioxidant activity in planer lipid bilayer membrane assessed as reduction in 50 uM DPPH-induced charge transfer resistance at 50 uM by admittance spectroscopic analysis. Set-up: scale not given: the % may be the effect or the level left. The class given is functional, cell membranes. In general terms: DPPH is a stable violet radical that fades when it is reduced.

Series [6] in a line: Binding affinity to curcumin encapsulated liposomes assessed as curcumin release from unilamellar vesicles at 100 uM after 20 mins NMR spectroscopic analysis.
Series [7] in a line: Antioxidant activity in planer lipid bilayer membrane assessed as inhibition of DPPH-induced reduction in height of semicircle at 50 to 100 uM by admittance spectroscopic analysis. The class given is functional, cell membranes.
Series [8] can be described thus: Induction of destruction morphology in human erythrocytes up to 100 uM after 1 hr by cold field emission scanning electron microscopic analysis. The format is cell-based. Particulars: erythrocyte.
Series [9] can be described thus: Binding affinity to planer lipid bilayer assessed as reduction in charge transfer resistance by admittance spectroscopic analysis. The class given is physicochemical.
A short description of series [10]: Induction of blebbing morphology in human erythrocytes up to 100 uM after 1 hr by cold field emission scanning electron microscopic analysis. The format is cell-based. Particulars: erythrocyte.
Series [11] deals with Radical scavenging activity. Nature of the series: Antioxidant activity assessed as DPPH free radical scavenging activity at >100 uM after 45 mins by UV-visible spectrophotometric analysis relative to vitamin C. The format is functional.
Series [12] in a line: Antioxidant activity in planer lipid bilayer membrane assessed as inhibition of DPPH-induced reduction in diameter of semicircle at 50 to 100 uM by admittance spectroscopic analysis. The format is functional, cell membranes.
The nature of series [13]: Induction of morphological changes in human erythrocytes at => 60 uM after 1 hr by cold field emission scanning electron microscopic analysis. The format is cell-based. Particulars: erythrocyte.
A short description of series [14]: Induction of budding morphology in human erythrocytes up to 100 uM after 1 hr by cold field emission scanning electron microscopic analysis. The format is cell-based. The conditions noted are these: erythrocyte.
Series [15] in a line: Antioxidant activity in planer lipid bilayer membrane assessed as reduction in 100 uM DPPH-induced charge transfer resistance at 100 uM by admittance spectroscopic analysis. The format is functional, cell membranes. Set-up: scale not given: the % may be the effect or the level left.
In series [16] the test system is Radical scavenging activity. Nature of the series: Antioxidant activity assessed as DPPH free radical scavenging activity at <100 uM after 45 mins by UV-visible spectrophotometric analysis relative to vitamin C. The class given is functional.
Series [17] is described as follows: Antioxidant activity in planer lipid bilayer membrane assessed as reduction in 50 uM DPPH-induced charge transfer resistance at 100 uM by admittance spectroscopic analysis. The format is functional, cell membranes. Set-up: scale not given: the % may be the effect or the level left.
Series [18] can be described thus: Binding affinity to planer lipid bilayer assessed as increase in cathodic current by cyclic voltammetric analysis. The class given is physicochemical.
In a further series the test system is MCF7. Put plainly: Cytotoxicity against human MCF7 cells at 100 uM after 24 hrs by MTS assay. The class given is cell-based. Particulars: mcf7, 24 h. On the technique in general: Tetrazolium assays rely on reduction of a dye to a coloured formazan, in cell work by metabolically active cells.
A short description of series [19]: Binding affinity to planer lipid bilayer assessed as change in height of semicircle pattern by admittance spectroscopic analysis. The format is physicochemical.
Series [20] can be described thus: Binding affinity to planer lipid bilayer assessed as change in diameter of semicircle pattern by admittance spectroscopic analysis. The class given is physicochemical.

Take `Oc1ccc(/C=C/c2cc(O)cc(O)c2)cc1` [RESVERATROL]: the Activity in series [1] is 22%; in series [2], “Active”; in [3], “Dose-dependent effect”; in series [4], “Dose-dependent effect”; in series [5] it was 19.5%; in series [6], 17%. Moreover, the Activity result in series [8] was “Toxic”; in series [9], “Active”; in series [10], “Toxic”; in [13] it was “Non-toxic”; in [14] it was “Toxic”; in series [15], 10.9%. The Activity was 7.7% in [17]; “Dose-dependent effect” in series [18]; 50% in the series on MCF7; “Dose-dependent effect” in series [19]; “Dose-dependent effect” in [20]. Besides, the inhibition entry in series [7] and in [12] was “Active” throughout. The outcome in series [11] and in series [16] was Active.
